Results taken from US6328728A, “Composition and method for enhancing electrotransport agent delivery” (Alza Corporation, priority 1997, dated 2001).

Test: Measurement of circular dichroism (mean residue ellipticity at 222 nm)
Type: physicochemical
Settings: 32° C.
Text: In general, the structure of a polypeptide in an aqueous buffered solution is in constant flux between portions thereof being random coil and alpha-helix configurations. For the polypeptides used in the following examples, the predominant structure is a random coil since the alpha-helix configuration is unstable in the absence of bound surfactant. According to the present invention adding surfactant to an aqueous solution of a polypeptide stabilizes the alpha-helix configuration. Circular dichroism is a measurement of the amount of the alpha-helix configured polypeptide present in the solution. Thus, circular dichroism provides an indirect measurement of the degree of binding of the surfactant to the polypeptide. (See, for example, Epand R. M., Epand R. F., Orlowski R. C., Schuleter R. J., Boni L. T. and Hui S. W., Biochemistry 22, 5074-5084 (1983); Hui, S. W., Epand R. M., Dell K. R., Epand R. F. and Orlowski R. C., Biochimica Biophysica Acta 772, 264-272 (1984); Epand R. M., Epand R. F., and Orlowski R. C., International Journal Peptide Protein Research 25 105-111; Epand R. M., Epand R. F., Orlowski R. C., Seyler J. K. and Colescott R. L., Biochemistry 25, 1964-1968; Epand R. M., Seyler J. K. and Orlowski R. C., European Journal Biochemistry 159, 125-127 (1986); Wiersema P. H., Loeb A. L. and Overbeek, J., Colloid Interface Science 22, 78-99 (1966)).
The surfactant/peptide circular dichroism (CD) spectra were obtained in a 2 mm path-length cell (110-Q-2 Model, AVIV, Lakewood, N.J.) at 32° C. The cell was initially loaded with 0.60 mL of a solution containing about 0.25 mg/mL of the peptide in 10 mM sodium chloroacetate (pH 3.5) or 10 mM sodium borate (pH 9.0). The buffers were selected to minimize the effect of the temperature on the pH of the solution and to minimize light absorption, thereby optimizing the signal-to-noise ratio (SNR). The peptide concentration was determined by spectrophotometry, with log-log correction for light scattering. The surfactant concentration was increased step-wise by titration of concentrated surfactant stock directly into the CD cell, followed by eight inversions of the cell, with the air bubble providing the mixing turbulence. After mixing, the cell was placed into the AVIV 62 CD spectrometer (AVIV, Lakewood, N.J.). In order to approximate temperature and chemical equilibrium, the sample remained in the spectrometer 5 minutes before a reading was taken. The CD spectrum was taken using a band pass of 1 nm, a data interval of 1 nm, and a data averaging time of 10 seconds. The mean residue ellipticity is the ellipticity divided by the path length in cm times the amino acid residue concentration in decimoles/cm^3. See Methods in Enzymology, Vol 130, pp 208-269, Yang et al, "Calculation of Protein Conformation from Circular Dichroism" (1986).
The measurement procedures described above were conducted on an aqueous solution of the protein insulinotropin, with TWEEN® 20 (MW=1126 g/mol) as the surfactant, with the following modifications. The insulinotropin donor solution concentration was 0.12 mg/mL. One test was run in 10 mM sodium borate at pH 9.0 and another test in 10 mM sodium chloroacetate at pH 3.5.
Fractional changes (%δ) are defined as the difference between the reading at a given surfactant concentration (Ec) minus the reading at zero surfactant (E0), the quantity divided by the difference between the reading at saturated surfactant concentration (Es) minus the reading at zero surfactant (E0), i. e. %δ=(Ec -E0)/(Es-E0).
The measurement procedures described earlier were conducted on an aqueous solution of insulinotropin as the agent, and TWEEN® 40 (molecular weight 1282 g/mol) as the surfactant with the following changes. The insulinotropin concentration was initially 0.29 mg/mL, and 0.21 mg/mL after the final TWEEN® 40 addition and the temperature was held at 32° C. Two tests were conducted at two different concentrations of TWEEN® 40. […]

Salmon Calcitonin [reference compound]
Ellipticity (mean residue at 222 nm) (pH 3.5, 12 mM sodium chloroacetate, dodecyl sulfobetaine 0, calcitonin 0.087 mM): -4052 deg-cm^2 /dmol
Ellipticity (mean residue at 222 nm) (pH 3.5, 12 mM sodium chloroacetate, dodecyl sulfobetaine 2.44 mM, calcitonin 0.085 mM): -4270 deg-cm^2 /dmol
Ellipticity (mean residue at 222 nm) (pH 3.5, 12 mM sodium chloroacetate, dodecyl sulfobetaine 4.76 mM, calcitonin 0.083 mM): -7984 deg-cm^2 /dmol
Ellipticity (mean residue at 222 nm) (pH 3.5, 12 mM sodium chloroacetate, dodecyl sulfobetaine 5.52 mM, calcitonin 0.082 mM): -8744 deg-cm^2 /dmol
Ellipticity (mean residue at 222 nm) (pH 3.5, 12 mM sodium chloroacetate, dodecyl sulfobetaine 6.25 mM, calcitonin 0.081 mM): -9436 deg-cm^2 /dmol
Ellipticity (mean residue at 222 nm) (pH 3.5, 12 mM sodium chloroacetate, dodecyl sulfobetaine 7.69 mM, calcitonin 0.080 mM): -10475 deg-cm^2 /dmol
Ellipticity (mean residue at 222 nm) (pH 3.5, 12 mM sodium chloroacetate, dodecyl sulfobetaine 9.09 mM, calcitonin 0.079 mM): -11072 deg-cm^2 /dmol
Ellipticity (mean residue at 222 nm) (pH 3.5, 12 mM sodium chloroacetate, dodecyl sulfobetaine 10.4 mM, calcitonin 0.078 mM): -11460 deg-cm^2 /dmol
Ellipticity (mean residue at 222 nm) (pH 3.5, 12 mM sodium chloroacetate, dodecyl sulfobetaine 13.0 mM, calcitonin 0.076 mM): -11924 deg-cm^2 /dmol
Ellipticity (mean residue at 222 nm) (pH 3.5, 12 mM sodium chloroacetate, dodecyl sulfobetaine 15.5 mM, calcitonin 0.073 mM): -12070 deg-cm^2 /dmol
Ellipticity (mean residue at 222 nm) (pH 3.5, 12 mM sodium chloroacetate, dodecyl sulfobetaine 21.1 mM, calcitonin 0.069 mM): -12285 deg-cm^2 /dmol
Ellipticity (mean residue at 222 nm) (pH 3.5, 12 mM sodium chloroacetate, dodecyl sulfobetaine 27.7 mM, calcitonin 0.063 mM): -12133 deg-cm^2 /dmol
Ellipticity (mean residue at 222 nm) (pH 5.0, 4 mM piperazine-HCl, dodecyl sulfobetaine 0, calcitonin 0.076 mM): -3919 deg-cm^2 /dmol
Ellipticity (mean residue at 222 nm) (pH 5.0, 4 mM piperazine-HCl, dodecyl sulfobetaine 0.83 mM, calcitonin 0.076 mM): -3950 deg-cm^2 /dmol
Ellipticity (mean residue at 222 nm) (pH 5.0, 4 mM piperazine-HCl, dodecyl sulfobetaine 1.64 mM, calcitonin 0.075 mM): -4011 deg-cm^2 /dmol
Ellipticity (mean residue at 222 nm) (pH 5.0, 4 mM piperazine-HCl, dodecyl sulfobetaine 3.23 mM, calcitonin 0.074 mM): -5209 deg-cm^2 /dmol
Ellipticity (mean residue at 222 nm) (pH 5.0, 4 mM piperazine-HCl, dodecyl sulfobetaine 4.76 mM, calcitonin 0.073 mM): -7108 deg-cm^2 /dmol
Ellipticity (mean residue at 222 nm) (pH 5.0, 4 mM piperazine-HCl, dodecyl sulfobetaine 6.25 mM, calcitonin 0.072 mM): -8348 deg-cm^2 /dmol
Ellipticity (mean residue at 222 nm) (pH 5.0, 4 mM piperazine-HCl, dodecyl sulfobetaine 7.69 mM, calcitonin 0.071 mM): -9127 deg-cm^2 /dmol
Ellipticity (mean residue at 222 nm) (pH 5.0, 4 mM piperazine-HCl, dodecyl sulfobetaine 9.77 mM, calcitonin 0.069 mM): -9915 deg-cm^2 /dmol
Ellipticity (mean residue at 222 nm) (pH 5.0, 4 mM piperazine-HCl, dodecyl sulfobetaine 12.4 mM, calcitonin 0.067 mM): -10469 deg-cm^2 /dmol
Ellipticity (mean residue at 222 nm) (pH 5.0, 4 mM piperazine-HCl, dodecyl sulfobetaine 18.4 mM, calcitonin 0.062 mM): -10999 deg-cm^2 /dmol
Ellipticity (mean residue at 222 nm) (pH 5.0, 4 mM piperazine-HCl, dodecyl sulfobetaine 26.4 mM, calcitonin 0.056 mM): -11188 deg-cm^2 /dmol
Ellipticity (mean residue at 222 nm) (pH 5.0, 4 mM piperazine-HCl, dodecyl sulfobetaine 35.8 mM, calcitonin 0.049 mM): -11051 deg-cm^2 /dmol
Ellipticity (mean residue at 222 nm) (pH 6.5, 15 mM sodium cacodylate, dodecyl sulfobetaine 0, calcitonin 0.071 mmol/l): -4569 deg-cm^2 /dmol
Ellipticity (mean residue at 222 nm) (pH 6.5, 15 mM sodium cacodylate, dodecyl sulfobetaine 3.28 mmol/l, calcitonin 0.070 mmol/l): -6725 deg-cm^2 /dmol
Ellipticity (mean residue at 222 nm) (pH 6.5, 15 mM sodium cacodylate, dodecyl sulfobetaine 6.45 mmol/l, calcitonin 0.068 mmol/l): -10182 deg-cm^2 /dmol
Ellipticity (mean residue at 222 nm) (pH 6.5, 15 mM sodium cacodylate, dodecyl sulfobetaine 9.52 mmol/l, calcitonin 0.067 mmol/l): -11095 deg-cm^2 /dmol
Ellipticity (mean residue at 222 nm) (pH 6.5, 15 mM sodium cacodylate, dodecyl sulfobetaine 12.5 mmol/l, calcitonin 0.066 mmol/l): -11386 deg-cm^2 /dmol
Ellipticity (mean residue at 222 nm) (pH 6.5, 15 mM sodium cacodylate, dodecyl sulfobetaine 18.2 mmol/l, calcitonin 0.064 mmol/l): -11744 deg-cm^2 /dmol
Ellipticity (mean residue at 222 nm) (pH 6.5, 15 mM sodium cacodylate, dodecyl sulfobetaine 28.6 mmol/l, calcitonin 0.061 mmol/l): -11862 deg-cm^2 /dmol
Ellipticity (mean residue at 222 nm) (pH 6.5, 15 mM sodium cacodylate, dodecyl sulfobetaine 42.1 mmol/l, calcitonin 0.056 mmol/l): -11844 deg-cm^2 /dmol
